A short description of series [1]: Surfactant-assisted rapid release of BF211@Lipo. The series is classed as physicochemical.
For series [2] the following is noted: cited from earlier work.
For series [3], the system named is guinea pig papillary muscle. The conditions noted are these: 0.4 µM; cited from earlier work.

≈ marks a conversion by molar mass, not a printed value.

As for Tween 80, the “release-promoting effect on BF211@Lipo” value in series [1] is “weak and unregulated release-promoting effect”. As to `C[C@]12CC[C@H](O)C[C@H]1CC[C@@H]1[C@@H]2CC[C@]2(C)[C@@H](c3ccc(=O)oc3)CC[C@]12O` [BF, Bufalin], the solubility (commonly how much of the substance goes into solution per volume) in series [2] was 10 µg/mL (≈ 25.9 µM). Also, the “effect on papillary muscle” value in series [3] is “arrhythmias”.
